Results published in US12583816B2, “Lipids for lipid nanoparticle delivery of active agents” (ACUITAS THERAPEUTICS, INC., priority 2018, dated 2026).

Experiments:
[1] = Determination of pKa of formulated lipids (TNS fluorescence assay in lipid nanoparticles); type: physicochemical
Protocol: As described elsewhere, the pKa of formulated cationic lipids is correlated with the effectiveness of LNPs for delivery of nucleic acids (see Jayaraman et al, Angewandte Chemie, International Edition (2012), 51(34), 8529-8533; Semple et al, Nature Biotechnology 28, 172-176 (2010)). The preferred range of pKa is ˜5 to ˜7. […] Lipid nanoparticles comprising cationic lipid/DSPC/cholesterol/PEG-lipid (50/10/38.5/1.5 mol %) in PBS at a concentration of 0.4 mM total lipid are prepared using the in-line process as described in Example 1. TNS is prepared as a 100 μM stock solution in distilled water. Vesicles are diluted to 24 μM lipid in 2 mL of buffered solutions containing, 10 mM HEPES, 10 mM MES, 10 mM ammonium acetate, 130 mM NaCl, where the pH ranged from 2.5 to 11. An aliquot of the TNS solution is added to give a final concentration of 1 μM and following vortex mixing fluorescence intensity is measured at room temperature in a SLM Aminco Series 2 Luminescence Spectrophotometer using excitation and emission wavelengths of 321 nm and 445 nm. A sigmoidal best fit analysis is applied to the fluorescence data and the pKa was measured as the pH giving rise to half-maximal fluorescence intensity.

[2] = test system: luciferase expression in the liver; test: In vivo luciferase mRNA expression rodent model (lipid nanoparticle formulations, liver luciferase); set-up: species or system mice; details: LNP with FLuc mRNA, PEG-DMA; 0.5 mg mRNA/kg, tail vein injection, liver 4 hours after administration
Protocol: Lipid nanoparticles are prepared and tested according to the general procedures described in PCT Pub. Nos. WO 2015/199952 and WO 2017/004143, the full disclosures of which are incorporated herein by reference. Briefly, cationic lipid, DSPC, cholesterol and PEG-lipid are solubilized in ethanol at a molar ratio of about 50:10:38.5:1.5 or about 47.5:10:40.8:1.7. Lipid nanoparticles (LNP) are prepared at a total lipid to mRNA weight ratio of approximately 10:1 to 30:1. The mRNA is diluted to 0.2 mg/mL in 10 to 50 mM citrate or acetate buffer, pH 4. Syringe pumps are used to mix the ethanolic lipid solution with the mRNA aqueous solution at a ratio of about 1:5 to 1:3 (vol/vol) with total flow rates above 15 mL/min. The ethanol is then removed and the external buffer replaced with PBS by dialysis. Finally, the lipid nanoparticles are filtered through a 0.2 µm pore sterile filter. Lipid nanoparticle particle size is approximately 55-95 nm diameter, and in some instances approximately 70-90 nm diameter as determined by quasi-elastic light scattering using a Malvern Zetasizer Nano ZS (Malvern, UK).
Studies are performed in 6-8 week old female C57BL/6 mice (Charles River) or 8-10 week old CD-1 (Harlan) mice (Charles River) according to guidelines established by an institutional animal care committee (ACC) and the Canadian Council on Animal Care (CCAC). Varying doses of mRNA-lipid nanoparticle are systemically administered by tail vein injection and animals euthanized at a specific time point (e.g., 4 hours) post-administration. Liver and spleen are collected in pre-weighed tubes, weights determined, immediately snap frozen in liquid nitrogen and stored at −80° C. until processing for analysis.
For liver, approximately 50 mg is dissected for analyses in a 2 mL FastPrep tubes (MP Biomedicals, Solon OH). ¼″ ceramic sphere (MP Biomedicals) is added to each tube and 500 μL of Glo Lysis Buffer—GLB (Promega, Madison WI) equilibrated to room temperature is added to liver tissue. Liver tissues are homogenized with the FastPrep24 instrument (MP Biomedicals) at 2×6.0 m/s for 15 seconds. Homogenate is incubated at room temperature for 5 minutes prior to a 1:4 dilution in GLB and assessed using SteadyGlo Luciferase assay system (Promega). Specifically, 50 μL of diluted tissue homogenate is reacted with 50 μL of SteadyGlo substrate, shaken for 10 seconds followed by 5 minute incubation and then quantitated using a CentroXS^3 LB 960 luminometer (Berthold Technologies, Germany). The amount of protein assayed is determined by using the BCA protein assay kit (Pierce, Rockford IL). Relative luminescence units (RLU) are then normalized to total ug protein assayed. To convert RLU to ng luciferase a standard curve is generated with QuantiLum Recombinant Luciferase (Promega). […]

[3] = cationic lipid formulated in LNP (cationic lipid/DSPC/cholesterol/PEG-lipid 50/10/38.5/1.5 mol %), TNS fluorescence, pH giving half-maximal fluorescence, Table 2
[4] = formulated cationic lipid in LNP, TNS assay, Table 4

Structure (SMILES)	pKa [1, 3]	pKa [1, 4]	Liver Luc @ 0.5 mg/kg (ng luc/g liver) [2]
CCCCCCCCC(CCCCCC)CN(CC(CCCCCC)CCCCCCCC)C(=O)CCCCCCCCN(C)C (stereo not shown) [Compound I-6]	7.15		
CCCCCCCCC(CCCCCC)CN(CCCCCCCCN(C)C)CC(CCCCCC)CCCCCCCC (stereo not shown) [Compound I-9]		5.85	341 ± 126 ng luc/g liver
CCCCCCCCC(CCCCCC)CN(CC(CCCCCC)CCCCCCCC)C(=O)CCCCNC(C)C (stereo not shown) [Compound I-4]	8.15		
CCCCCCCCC(CCCCCC)CN(CC(CCCCCC)CCCCCCCC)C(=O)CCCCN(C)C (stereo not shown) [Compound I-1]	6.68		206 ± 141 ng luc/g liver
CCCCCCCCC(CCCCCC)CN(CC(CCCCCC)CCCCCCCC)C(=O)CCN(C)C (stereo not shown) [Compound I-5]	6.25		1417 ± 390 ng luc/g liver
CCCCCCCCC(CCCCCC)CN(CC(CCCCCC)CCCCCCCC)C(=O)CCCCCCCN(C)C (stereo not shown) [Compound I-7]	7.23		
CCCCCCCCC(CCCCCC)CN(CCCCCCCCCN(C)C)CC(CCCCCC)CCCCCCCC (stereo not shown) [Compound I-8]		5.96	1761 ± 598 ng luc/g liver
CCCCCCCCC(CCCCCC)CN(CC(CCCCCC)CCCCCCCC)C(=O)CCCCN(CCO)CCO (stereo not shown) [Compound I-3]	6.49		
CCCCCCCCC(CCCCCC)CN(CC(CCCCCC)CCCCCCCC)C(=O)CCCCCN(C)C (stereo not shown) [Compound I-2]	7.42		
